In US12024504B2, “1-methyl-1H-pyrazol-3-yl derivatives for use in the treatment of neovascular diseases” (EXONATE LIMITED, priority 2021, dated 2024):

Columns and labels:
[1] = Rabbit pharmacokinetic study (eye drop); type: in vivo; details: single 50 μL eye drop, 500 μg/mL, 1, 4, 12 or 24 hours
Description: Rabbits were treated with a single 50 μL eye drop of pazopanib at 80 μg/ml (maximum limit of solubility) and compound R at 500 μg/mL in the initial eye drop formulation containing 1% hydroxypropyl methyl cellulose, 0.2% tyloxapol, 3.4% dextrose, 0.006% benzalkonium chloride, and 0.025% ethylenediaminetetraacetic acid with 1% DMSO in PBS or with a single 50 μL eye drop of compound 1 at 500 μg/mL in the eye drop formulation containing 7% poly-oxyl-40-stearate and 4% dextrose in PBS. No difference between the eye drop formulations was confirmed in a separate study. Rabbits were killed at the indicated time points after the eye drop, blood and eyes taken, and the retina dissected from the choroid and sclera, incisions made, and laid out flat. Retina, RPE/choroid and sclera eye compartments were dissected into 7 different areas. All samples were weighed. Compound was extracted by reverse phase extraction from the retina and choroid/sclera samples and the plasma as above, and amount determined by mass spectrometry in different areas of the eye and in the blood. […]
To determine if the compounds could access the RPE of an animal with a large eye, a rabbit was exposed to 500 μg/mL of the compound as an eye drop and the concentrations in the retina, sclera, vitreous and other eye tissues (cornea); lens; RPE/choroid were measured. […]

[2] = Non-human primate pharmacokinetic study (eye drops); type: in vivo, Cynomolgus monkeys
Description: Non-human primate pharmacokinetic study Cynomolgus monkeys were treated bidaily for 20 days with 35 μL eye drops of compound 1 at 0.5 mg/mL, 1.0 mg/mL or 1.5 mg/ml as indicated, in the eye drop formulation containing 7% poly-oxyl-40-stearate and 4% dextrose in PBS. Blood and aqueous samples were collected 1 h, 4 h, 8 h, 10 h and 14 h after eye drop administration on day 1 and at the end of the study. 1 h after the final eye drop on day 21, the animals were euthanised and ocular tissues and blood were collected. The retina was dissected from the choroid and sclera, incisions made, and laid out flat. Retina, RPE/choroid and sclera eye compartments were dissected into 7 different areas. All samples were weighed. Compound was extracted by reverse phase extraction from the retina and choroid/sclera samples and the plasma as above, and amount determined by mass spectrometry in different areas of the eye and in the blood. Amounts per milligram of tissue or nM for aqueous and blood were calculated for each sample, and averaged.
(§1) To determine whether compound 1 could penetrate into the retina of primates we dosed cynomologous monkeys with 0.5, 1.0 or 1.5 mg/mL compound 1 twice a day for 21 days. […] Aqueous taps and plasma samples were taken during the treatment and compound 1 measured in the fluid. […] To determine if these doses were sufficient to inhibit angiogenic VEGF-A isoform expression, retinal tissue was subjected to immunoblotting using pan-VEGF or VEGF-A165b antibodies.

[3] = test system: pan-VEGF and VEGF-A165b; assay: Non-human primate retinal VEGF immunoblotting; type: in vivo, Cynomolgus monkeys; details: monkey
Description: Retina sections sampled from half of the eye were homogenised in NP40 lysis buffer as described in Gammons et al., 2013. The extracts were then immunoblotted using either rabbit anti-panVEGF (Santa Cruz A20 sc-152; 1:500) or mouse anti-VEGFi65b (MAB3045; R&D; 1:500).
as §1

[4] = 3 weeks bidaily dosing, FIG. 10b

## Cn1ccc(CN2CCN(c3ccc(C(F)(F)F)cc3NC(=O)c3ccc(C4CCOCC4)o3)CC2)n1 [Compound 1, N-(2-(4-((1-methyl-1H-pyrazol-3-yl)methyl)piperazin-1-yl)-5-(trifluoromethyl)phenyl)-5-(tetrahydro-2H-pyran-4-yl)furan-2-carboxamide]
[1]
  Retinal penetration after eye drop: better sustained penetration (e.g. at 4 hrs) than chemically similar molecules such as Compound R
[2]; cynomolgus, cynomolgus monkey, aqueous humour, topical or ocular, monkey, after administration of 1.5 mg/mL eye drop
  half-life: 2 h
[2]; monkey, 0.5, 1.0 or 1.5 mg/mL twice a day for 21 days
  Concentrations in retina, choroid, vitreous and other tissues of the eye: significant concentrations
[2]; monkey, all three doses (0.5, 1.0, 1.5 mg/mL)
  Concentrations in aqueous taps and plasma samples: Significant concentrations were seen at all three doses
[3]; [4]
  Total VEGF levels in retina: total VEGF levels are decreased
  VEGF-A165b levels in retina: do not decrease and increase at 1 mg/ml
[3]; FIG. 10c
  Ratio of angiogenic to anti-angiogenic VEGF-A in retina: decreases
